Laboratory results published in PubChem BioAssay AID328 (DTP/NCI, 2004).
Where “and” joins values, the source holds several entries; their conditions need not be identical. Equal entries are not always repeated. Toxic doses and inconclusive results are not listed.

Test system: BDF1 mice, P388 leukemia ip, median survival T/C
Test: NCI In Vivo Anticancer Drug Screen. Data for tumor model P388 Leukemia (intraperitoneal) in B6D2F1 (BDF1) mice
Settings: endpoint: median survival time, higher = longer survival
In short: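 Mice carrying the transplantable tumour receive compound or vehicle. Survival is followed in each arm, and the treated measure is divided by the vehicle measure.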

[1] = dose: 100.0 mg/kg/injection, schedule: Q01DX009 (ip), vehicle: saline with Tween-80
[2] = dose: 200.0 mg/kg/injection, schedule: Q01DX009 (ip), vehicle: saline with Tween-80

`CC(/C=N/N=C(N)N)=N\N=C(N)N` was tested, and the T/C (dose: 40.0 mg/kg/injection, schedule: Q01DX009 (ip), vehicle: water) was 86 % of control and the T/C (dose: 60.0 mg/kg/injection, schedule: Q01DX010 (ip), vehicle: water) was 88 % of control.
In the case of `COc1cccc2c1C(=O)c1c(O)c3c(c(O)c1C2=O)C[C@@](O)(C(C)=O)C[C@@H]3OC1CC(N(Cc2ccccc2)Cc2ccccc2)C(O)C(C)O1` (some centres undefined), the T/C (dose: 37.5 mg/kg/injection, schedule: Q04DX003 (ip), vehicle: water) is reported as 227 % of control, the T/C (dose: 150.0 mg/kg/injection, schedule: Q04DX003 (ip), vehicle: water) is reported as 100 % of control and the T/C (dose: 300.0 mg/kg/injection, schedule: Q04DX003 (ip), vehicle: water) is reported as 102 % of control.
`CCCCC(=O)N/N=C(\C)[C@]1(O)Cc2c(O)c3c(c(O)c2[C@@H](OC2CC(N)C(O)C(C)O2)C1)C(=O)c1c(OC)cccc1C3=O` (some centres undefined) was tested, and the T/C (dose: 0.78 mg/kg/injection, schedule: Q01DX009 (ip), vehicle: saline) was 109 % of control, the T/C (dose: 1.56 mg/kg/injection, schedule: Q01DX009 (ip), vehicle: saline) was 109 % of control and the T/C (dose: 1.56 mg/kg/injection, schedule: Q01DX009 (ip), vehicle: water) was 157 % of control. The T/C (dose: 3.12 mg/kg/injection, schedule: Q01DX009 (ip), vehicle: saline) was 122 % of control, the T/C (dose: 3.12 mg/kg/injection, schedule: Q01DX009 (ip), vehicle: water) was 172 % of control and the T/C (dose: 6.25 mg/kg/injection, schedule: Q01DX009 (ip), vehicle: saline) was 178 % of control.
`CCCCc1ccc(Sc2cccc3c2C(=O)c2c(Sc4ccc(CCCC)cc4)cccc2C3=O)cc1` was tested, and the T/C [1] was 95 % of control, the T/C [2] was 90 % of control and the T/C (dose: 400.0 mg/kg/injection, schedule: Q01DX009 (ip), vehicle: saline with Tween-80) was 95 % of control.
`CCC(=O)/C(=C\c1ccccc1Cl)C(C)=O` was tested, and the T/C (dose: 50.0 mg/kg/injection, schedule: Q01DX009 (ip), vehicle: saline with Tween-80) was 108 % of control, the T/C [1] was 116 % of control and the T/C [2] was 120 % of control.
In the case of `COc1ccc(CNCCNCc2ccc(OC)cc2)cc1`, the T/C (dose: 12.5 mg/kg/injection, schedule: Q01DX009 (ip), vehicle: water) is reported as 98 % of control, the T/C (dose: 25.0 mg/kg/injection, schedule: Q01DX009 (ip), vehicle: water) is reported as 100 % of control and the T/C (dose: 25.0 mg/kg/injection, schedule: Q04DX003 (ip), vehicle: water) is reported as 95 % of control. The T/C (dose: 50.0 mg/kg/injection, schedule: Q01DX009 (ip), vehicle: water) was 115 % of control, the T/C (dose: 50.0 mg/kg/injection, schedule: Q04DX003 (ip), vehicle: water) was 95 % of control and the T/C (dose: 100.0 mg/kg/injection, schedule: Q01DX009 (ip), vehicle: water) was 92 % of control and 107 % of control. For the same compound, the T/C (dose: 100.0 mg/kg/injection, schedule: Q04DX003 (ip), vehicle: water) was 100 % of control and 109 % of control.
With `CCC(=O)O[C@H]1CC[C@H]2[C@@H]3CC[C@H]4CC(=O)[C@H](C)C[C@]4(C)[C@H]3CC[C@]12C` the T/C (dose: 100.0 mg/kg/injection, schedule: Q01DX009 (ip), vehicle: Klucel (hydroxypropylcellulose) (HPC)) was 87 % of control, the T/C (dose: 100.0 mg/kg/injection, schedule: Q04DX003 (ip), vehicle: Klucel (hydroxypropylcellulose) (HPC)) was 104 % of control and the T/C (dose: 200.0 mg/kg/injection, schedule: Q01DX009 (ip), vehicle: Klucel (hydroxypropylcellulose) (HPC)) was 95 % of control. The T/C (dose: 200.0 mg/kg/injection, schedule: Q04DX003 (ip), vehicle: Klucel (hydroxypropylcellulose) (HPC)) was 100 % of control, the T/C (dose: 400.0 mg/kg/injection, schedule: Q01DX009 (ip), vehicle: Klucel (hydroxypropylcellulose) (HPC)) was 87 % of control and the T/C (dose: 400.0 mg/kg/injection, schedule: Q04DX003 (ip), vehicle: Klucel (hydroxypropylcellulose) (HPC)) was 104 % of control.
`CN=S(=O)(OCC#CCOS(=O)(=NC)c1ccc(C)cc1)c1ccc(C)cc1` (centres undefined) was tested, and the T/C (dose: 50.0 mg/kg/injection, schedule: Q01DX009 (ip), vehicle: saline + alcohol) was 151 % of control, the T/C (dose: 100.0 mg/kg/injection, schedule: Q01DX009 (ip), vehicle: saline + alcohol) was 87 % of control and the T/C [1] was 94 % of control.
For `COC(OC)c1nc(N)[nH]c(=O)c1Cc1ccc(Br)cc1`, the T/C (dose: 100.0 mg/kg/injection, schedule: Q04DX003 (ip), vehicle: saline with Tween-80) was 95 % of control, the T/C (dose: 200.0 mg/kg/injection, schedule: Q04DX003 (ip), vehicle: saline with Tween-80) was 104 % of control and the T/C (dose: 400.0 mg/kg/injection, schedule: Q04DX003 (ip), vehicle: saline with Tween-80) was 100 % of control.
For `CCC(c1ccc(OC)cc1)C(NCC(=O)NNC(=O)CNC(c1ccc(OC)cc1)C(CC)c1ccc(OC)cc1)c1ccc(OC)cc1` (centres undefined), the T/C (dose: 12.5 mg/kg/injection, schedule: Q04DX002 (ip), vehicle: saline with Tween-80) was 110 % of control, the T/C (dose: 25.0 mg/kg/injection, schedule: Q04DX002 (ip), vehicle: saline with Tween-80) was 88 % of control and the T/C (dose: 50.0 mg/kg/injection, schedule: Q04DX002 (ip), vehicle: saline with Tween-80) was 94 % of control.
`CC1=NNC(=O)C1` was tested, and the T/C (dose: 100.0 mg/kg/injection, schedule: Q01DX001 (ip), vehicle: saline sonified) was 100 % of control, the T/C (dose: 200.0 mg/kg/injection, schedule: Q01DX001 (ip), vehicle: saline sonified) was 100 % of control and the T/C (dose: 400.0 mg/kg/injection, schedule: Q01DX001 (ip), vehicle: saline sonified) was 105 % of control.
For `O=C(NO)c1ccccn1`, the T/C (dose: 130.0 mg/kg/injection, schedule: Q01DX010 (ip), vehicle: water) was 109 % of control and the T/C (dose: 200.0 mg/kg/injection, schedule: Q01DX010 (ip), vehicle: water) was 100 % of control.
